Results published in ChEMBL document CHEMBL1146461, “Vibsane diterpenoids from the leaves and flowers of Viburnum odoratissimum” (2004).

Legend:
NUGC-3 = assay: Cytotoxicity against human NUGC3 assessed as survival at 20 ug/ml by MTS method; type: functional; settings: read-out: Survival
[1] = Cytotoxicity against human HONE1 assessed as survival at 20 ug/ml by MTS method; type: functional; settings: read-out: Survival

SMILES | viability at 20 µg/mL (NUGC-3) | viability at 20 µg/mL [1]
C=C(C)C(O)CC[C@@]1(C)CC=C(CO)C(=O)[C@H](CC(C)=O)[C@@H]1/C=C/OC(=O)C=C(C)C (stereo not given in full) | 58% | –
C=C(C)C(CC[C@@]1(C)CC=C(COC(C)=O)C(=O)[C@@H](CC(C)=O)[C@@H]1/C=C/OC(=O)C=C(C)C)OC(C)=O (stereo not given in full) | 0% | 0%
CC(=O)C[C@@H]1C(=O)C(COC(C)=O)=CC[C@](C)(C/C=C/C(C)(C)OC(C)=O)[C@H]1/C=C/OC(=O)C=C(C)C | 0% | 0%
